Experimental data as given in patent US7833964B2, “Methods of reducing visceral fat by increasing levels of insulin-like growth factor-I (IGF-I)” (Tercica, Inc., priority 2003, dated 2010).
Where “and” joins values, the source holds several entries; their conditions need not be identical. Identical values can stand only once.

Key:
[1] = Mid-thigh CT scan: thigh adipose tissue (TAT); format: in vivo, human
Protocol: (§1) All CT scans were performed on GE Sytec 4000 CT scanners or an equivalent scanner.
An initial Thigh Scan was performed using the following procedure: • 1. The subject lay on the CT bed with his or her feet toward the scanner. The subject's knees were at least 3 inches above the extended bed joint, not over the joint. • 2. The legs were positioned so they were not touching each other and the hands were crossed over the abdomen so as not to interfere with the scan. • 3. The CT technician then positioned the bed. The entire femur was visualized in the initial topogram. • 4. The technician then made a topogram of the entire femur of the non-dominant leg and recorded this picture on the film. The length of the femur was then measured and recorded and this measurement was used to identify the midpoint of the femur. This midpoint was used to assess the cross section of the thigh. • 5. The technician took a 10-mm slice at the precise level of the mid-point of the femur with the following settings for a GE Sytec 4000 scanner: • kV=100 • MA=170 • 1 sec • DFOV=21 • Algorithm=standard
Technicians were advised that although settings for some scanners may be slightly different, the settings must be standardized so as to give the greatest definition for fat and lean tissue. Once the technician determined the appropriate setting for a scanner, he or she was advised to use the same settings for every (slice) scan. The topograms could be at different settings as the topograms would not be imaged. • 6. The entire cross section of the nondominant thigh was visualized on the screen. If the entire thigh was not visualized on the screen, the picture was reconfigured with a larger display field of view. Once the entire thigh was visualized on the screen, the technician downloaded the cross section to the disk. The disk was checked to make sure the image was actually there, and then the picture was recorded on film. • 7. The exam number, series number, and image number of the slice was then recorded. • 8. The technician sent the film to the printer at this point. The film was set at four pictures per film, and the film had for the femur the recorded total distance, the midpoint, and the slice of the thigh.
The same leg (left) was used as in the initial scan. A topogram of the thigh was taken, and a measurement made down the femur to the midpoint of the femur using the same distance as was used in the baseline thigh scan. A 10-mm cross section scan was taken at the midpoint using the identical settings as were used for the baseline scan. A record was made of the exam number, series number, and image number of the slice.
(§2) Slices were downloaded onto the scanner and then retrieved via optical disk (or the Internet if possible) to a computer for analysis. During analysis, the area of intra-abdominal and subcutaneous fat as well as oblique, psoas, quadratum laborum, and sacrospinalis muscles were measured. The images were digitized by optical density to separate bone, muscle, and fat compartments using a modified version of the NIH IMAGE program. Pixel units were converted to area measurements using an internal calibration standard. Digitized images were analyzed in a blinded fashion. The coefficient of variation of repeated analysis of a single scan is <1.5%.

Change in body weight = format: in vivo, human; settings: for Weight Change (SE) Week 14: 2 weeks after treatment stopped; for Weight Change (SE) Week 8: change from Day 1
[2] = Abdominal CT scan: visceral (VAT) and subcutaneous (SAT) adipose tissue, abdominal perimeter; format: in vivo, human; settings: for change in abdominal perimeter by CT scan, mean±SEM: 12 weeks
Protocol: as §1
An initial Abdominal Scan was performed using the following procedure: • 1. After the thigh scan was complete, a small triangular wedge pillow was placed under the subject's knees to help tilt the spine to the correct position. The arms were crossed over the chest/neck with elbows up and out of the way of the abdomen. The subject's underpants were pulled down so that the elastic of the underwear was well out of the way of the site where the scan was taken. • 2. The technician positioned the bed in the scanner so that a lateral topogram could be taken that included at least T12 through L5 of the spine. This picture was recorded on film. • 3. The location of the midsection of L3 was identified. • 4. A 10-mm slice at the level of the midpoint of L3 (angle must be zero so that the slice was perpendicular) was taken at the same settings as were used for the thigh slice, with the exception of the DFOV, which was 35 or 45 (35 for a small person and 45 for a large person).
The entire cross section of the abdomen was on the screen. If the entire abdomen was not on the screen, the picture was reconfigured. Once the entire abdomen was on the screen, the technician downloaded it onto the disk and verified that the image was actually on the disk. This was then recorded on film. • 5. The technician sent the film to the printer at this point. It was a requirement that each film had four pictures, and the film had the lateral topogram of the spine and the slice. • 6. The technician then recorded the exam number, the series number, and the image number of slice. • 7. The subject was then removed from the table if there were no more measurements to obtain and the film was collected.
The same procedures were then followed for the repeat abdominal scans with identical settings and locations being used for the repeat scans.
as §2
Another independent measurement was that the CT scan assessed the abdominal diameter and the abdominal perimeter (e.g., belt size). The abdominal perimeter in subjects treated with glyburide alone was unchanged (−0.3±0.8 cm, mean±SEM) but in subjects treated with IGF-I at 20 micrograms/kg it was reduced (−1.4±0.8 cm) and was reduced even more in subjects treated with 40 micrograms/kg to (−2.9±1.3 cm). This reduction in “girth” caused by high dose IGF-I was, in layman's terms over an inch, or one belt notch, clearly a significant effect in only 12 weeks.
The body components contributing to these beneficial effects of IGF-I on body weight, BMI and girth were then analyzed by studying the changes in body composition as measured by computerized scanning. Two scans were performed. A scan was performed before treatment with IGF-I and another scan was performed after treatment with IGF-I. These two scans were analyzed by measuring the area of fat so that the effect of treatment with IGF-I could be ascertained.
The effect of IGF-I on body fat was estimated using the visceral adipose tissue (VAT) in abdomen and the subcutaneous adipose tissue (SAT) in the abdomen. The absolute changes in fat and the percent changes in fat were both analyzed. The percent changes were analyzed to guard against subjects with larger amounts of fat being given undue statistical weight in the analyses. […]

[3] = IGF-I administration in human subjects; cited from earlier work
[4] = injected in castrated male sheep; cited from earlier work
[5] = rats, catabolic state induced by diabetes, dexamethasone, or intestinal resection; cited from earlier work
[6] = mini-poodles; cited from earlier work
[7] = glyburide active + IGF-I placebo
[8] = glyburide 10 mg BID + rhIGF-I placebo
[9] = glyburide active + IGF-I placebo, abdominal CT, change from baseline
[10] = IGF-I 20 μg/kg, with glyburide or glyburide placebo per label
[11] = IGF-I 40 μg/kg, with glyburide or glyburide placebo per label
[12] = IGF-I 20 μg/kg BID, with glyburide or glyburide placebo per label
[13] = IGF-I 40 μg/kg BID, with glyburide or glyburide placebo per label
[14] = low dose IGF-I (20 μg/kg BID) alone

COc1ccc(Cl)cc1C(=O)NCCc1ccc(S(=O)(=O)NC(=O)NC2CCCCC2)cc1 [Glyburide, glyburide, reference compound]
Change in TAT (%), mean (SEM) [1, 7]: 2.5 (2.0) %
Change in TAT, mean (SEM) ([1]; glyburide active + IGF-I placebo, thigh CT, change from baseline): 1.0 (1.6) sq cm
Weight Change (SE) Week 14 (Change in body weight; [8]): 0.0 (0.8) kg
Weight Change (SE) Week 8 (Change in body weight; [8]): −0.2 (0.4) kg
Mean SAT % Change (SEM) [2, 7]: 1% and 1.0 (1.9) %
Mean VAT % Change (SEM) [2, 7]: 9% and 9.3 (3.9) %
Change in SAT, mean (SEM) [2, 9]: 2.0 (5.6) cm^2
Change in VAT, mean (SEM) [2, 9]: 13.6 (6.4) cm^2
change in abdominal perimeter by CT scan, mean±SEM ([2]; glyburide alone): −0.3±0.8 cm

IGF-I: recombinant human insulin-like growth factor-I from Genentech; sterile benzyl alcohol-preserved solution, 70 mg in 7 mL acetate/NaCl, pH 5.4; given SC
effect on body fat and body composition [3]: little effect
effect on body fat [4]: no detectable effect
insulin levels [4]: lowered insulin levels
Change in TAT (%), mean (SEM) [1, 10]: −1.4 (3.7) %
Change in TAT, mean (SEM) [1, 10]: −1.2 (2.8) sq cm
Change in TAT (%), mean (SEM) [1, 11]: 3.9 (4.3) %
Change in TAT, mean (SEM) [1, 11]: 0.3 (4.3) sq cm
Weight Change (SE) Week 14 (Change in body weight; [12]): −2.7 (0.6) kg
Weight Change (SE) Week 8 (Change in body weight; [12]): −1.5 (0.6) kg
Weight Change (SE) Week 14 (Change in body weight; [13]): −1.6 (0.5) kg
Weight Change (SE) Week 8 (Change in body weight; [13]): −0.2 (0.5) kg
weight loss 2 weeks after treatment was stopped (Week 14) (Change in body weight; [14]): 2.7 kg
weight lost on average, Week 8 (Change in body weight; [14]): 1.5 kg
Change in SAT, mean (SEM) [2, 10]: −12.3 (4.1) cm^2
Change in VAT, mean (SEM) [2, 10]: 1.0 (9.0) cm^2
Mean SAT % Change (SEM) [2, 10]: −6.0 (2.6) %
Mean VAT % Change (SEM) [2, 10]: 1.0 (4.0) %
Change in SAT, mean (SEM) [2, 11]: −16.1 (5.4) cm^2
Change in VAT, mean (SEM) [2, 11]: −20.0 (7.6) cm^2
Mean SAT % Change (SEM) [2, 11]: −6.4 (2.5) %
Mean VAT % Change (SEM) [2, 11]: −9.4 (3.9) %
visceral fat area reduced by ([2]; IGF-I alone at 40 μg/kg): ~10%
change in abdominal perimeter by CT scan, mean±SEM ([2]; IGF-I at 20 micrograms/kg): −1.4±0.8 cm
change in abdominal perimeter by CT scan, mean±SEM ([2]; IGF-I at 40 micrograms/kg): −2.9±1.3 cm
percentage of body fat [5]: trend toward a lower percentage of body fat
body mass index [6]: reduced body mass index
